Source: US6313110A, “Substituted 2H-1,3-diazapin-2-one useful as an HIV protease inhibitor” (priority 2000, dated 2001)
Read-outs that look alike come from different tables or passages of the source.

Tested on: HIV-1 (RF) in MT-2 cells
Experiment: HIV RNA assay: antiviral potency in HIV-1 (RF) infected MT-2 cells (reduction of HIV RNA level)
Type: cell-based
Description: Plasmid pDAB 72 containing both gag and pol sequences of BH10 (bp 113-1816) cloned into PTZ 19R was prepared according to Erickson-Viitanen et al. AIDS Research and Human Retroviruses 1989, 5, 577. The plasmid was linearized with Bam HI prior to the generation of in vitro RNA transcripts using the Riboprobe Gemini system II kit (Promega) with T7 RNA polymerase. Synthesized RNA was purified by treatment with RNase free DNAse (Promega), phenol-chloroform extraction, and ethanol precipitation. RNA transcripts were dissolved in water, and stored at -70° C. The concentration of RNA was determined from the A260.
Biotinylated capture probes were purified by HPLC after synthesis on an Applied Biosystems (Foster City, Calif.) DNA synthesizer by addition of biotin to the 5' terminal end of the oligonucleotide, using the biotin-phosphoramidite reagent of Cocuzza, Tet. Lett. 1989, 30, 6287. […]
MT-2 and MT-4 cells were maintained in RPMI 1640 supplemented with 5% fetal calf serum (FCS) for MT-2 cells or 10% FCS for MT-4 cells, 2 mM L-glutamine and 50 μg/mL gentamycin, all from Gibco. […] Infectious titers of HIV-1(RF) stocks were 1-3×10^7 PFU (plaque forming units)/mL as measured by plaque assay on MT-2 cells (see below). […]

Nc1cccc(CN2C(=O)N(Cc3ccc4[nH]ncc4c3)[C@H](Cc3ccccc3)[C@H](O)[C@@H](O)[C@H]2Cc2ccccc2)c1 [Example 1, (4R,5S,6S,7R)-hexahydro-1-[(indazol-5-yl)methyl]-5,6-dihydroxy-4,7-bis[phenylmethyl]-3-(3-aminophenyl)methyl-2H-1,3-diazapin-2-one]
IC90 (Human immunodeficiency virus 1, MT2, 72 h, 3 days culture at 37° C., read-out: IC90 (concentration of compound required to reduce the HIV RNA level by 90%)): < 50 nM

Nc1ccn([C@H]2CC[C@@H](CO)O2)c(=O)n1 [ddC, dideoxycytidine]
IC90 (Human immunodeficiency virus 1, MT2, ddC reference, dilutions of virus selected to give this IC90, read-out: IC90 (concentration of compound required to reduce the HIV RNA level by 90%)): 0.2 µg/mL
